Reference: publication PMC6716157 (Journal of the American Chemical Society, 2019)

How the values were obtained:
MsMftD = MsMftD (Mycolicibacterium smegmatis, UniProt A0QSB9); assay: HPLC of product, aerobic; format: biochemical; settings: oxidative deamination to PMFT
MuMftD (MftD) = molecular target: T1, MuMftD (MftD) (Mycobacterium ulcerans, UniProt A0PM50); assay: HPLC of flavin released by heat from purified protein; format: binding; settings: copurified; bound reduced as isolated, released on oxidation
T1 sequence (A0PM50 1-390): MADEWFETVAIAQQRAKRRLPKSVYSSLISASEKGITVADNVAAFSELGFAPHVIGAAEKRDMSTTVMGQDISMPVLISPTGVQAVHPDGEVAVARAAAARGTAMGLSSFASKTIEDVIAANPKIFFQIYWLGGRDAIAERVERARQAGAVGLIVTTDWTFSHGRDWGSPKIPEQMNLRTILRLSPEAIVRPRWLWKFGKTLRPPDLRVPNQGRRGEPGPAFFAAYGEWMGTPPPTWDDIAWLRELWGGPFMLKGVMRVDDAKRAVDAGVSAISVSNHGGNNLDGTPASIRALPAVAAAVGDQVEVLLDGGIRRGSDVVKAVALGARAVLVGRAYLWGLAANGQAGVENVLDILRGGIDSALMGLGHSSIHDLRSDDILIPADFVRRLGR

[1] = molecular target: MsCDH (carveol dehydrogenase, Msmeg_1410) (Mycolicibacterium smegmatis, UniProt A0QSA5); assay: UV-vis absorbance of copurified NADH at […] nm; format: binding; settings: pH 7.0, non-exchangeable, oxidised by PMFT
Chain of MsCDH (carveol dehydrogenase, Msmeg_1410) (A0QSA5 1-283): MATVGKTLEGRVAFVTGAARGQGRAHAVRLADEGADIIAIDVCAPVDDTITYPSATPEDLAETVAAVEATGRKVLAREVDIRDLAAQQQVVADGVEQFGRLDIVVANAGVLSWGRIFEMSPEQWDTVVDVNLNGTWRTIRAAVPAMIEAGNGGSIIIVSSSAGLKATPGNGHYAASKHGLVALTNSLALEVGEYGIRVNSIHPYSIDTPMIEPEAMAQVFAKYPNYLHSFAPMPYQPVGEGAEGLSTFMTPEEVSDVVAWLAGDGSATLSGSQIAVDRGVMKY

Chain of MsMftD (A0QSB9 whole entry): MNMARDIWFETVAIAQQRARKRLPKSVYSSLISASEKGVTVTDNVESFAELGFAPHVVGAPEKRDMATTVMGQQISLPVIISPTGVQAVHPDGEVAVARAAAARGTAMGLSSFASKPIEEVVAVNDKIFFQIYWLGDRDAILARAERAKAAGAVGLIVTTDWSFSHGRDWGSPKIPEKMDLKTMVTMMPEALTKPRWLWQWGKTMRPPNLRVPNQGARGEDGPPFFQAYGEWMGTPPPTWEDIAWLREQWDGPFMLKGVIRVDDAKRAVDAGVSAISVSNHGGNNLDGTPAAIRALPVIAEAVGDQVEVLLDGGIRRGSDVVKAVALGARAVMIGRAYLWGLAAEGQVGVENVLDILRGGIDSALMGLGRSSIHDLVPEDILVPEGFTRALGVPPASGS

Compound: CC1(C)C(Cc2ccc(O)cc2)NC(=O)C1N (stereo not drawn) [AHDP, 3-amino-5-[(p-hydroxyphenyl)methyl]-4,4-dimethyl-2-pyrrolidinone]
- HPLC of product, aerobic (MsMftD): the HPLC chromatogram for the MsMftD reaction showed similar results to that of MuMftD

Compound: Cc1cc2nc3c(=O)[nH]c(=O)nc-3n(C[C@H](O)[C@H](O)[C@H](O)COP(=O)(O)O)c2cc1C [FMN]
- HPLC of flavin released by heat from purified protein; UV-vis (MuMftD (MftD)): the absorbance features of the cofactor bound to MuMftD originated from FMN

Compound: NC(=O)C1=CN([C@@H]2O[C@H](COP(=O)(O)OP(=O)(O)OC[C@H]3O[C@@H](n4cnc5c(N)ncnc54)[C@H](O)[C@@H]3O)[C@@H](O)[C@H]2O)C=CC1 [NADH]
- UV-vis absorbance of copurified NADH at 340 nm [1]: PMFT is mediating the oxidation of NADH to NAD^+ on MsCDH
